pIC50: −log10 of the molar value.
test: Antagonist activity against 1-alpha,25-dihydroxy vitamin D3-induced HL60 cell differentiation by NBT reduction method

| Structure (SMILES) | pIC50 |
| --- | --- |
| C=C1/C(=C\C=C2/CCC[C@]3(C)[C@@H]([C@H](C)C[C@@H]4OC(=O)C(=C)[C@@H]4CC)CC[C@@H]23)C[C@@H](O)[C@H](OCCCO)[C@@H]1O | 8.08 |
| C=C1C(=O)O[C@H](C[C@@H](C)[C@H]2CC[C@H]3/C(=C/C=C4/C[C@@H](O)C[C@H](O)C4=C)CCC[C@]23C)[C@@H]1CC | 8.07 |
| C=C1/C(=C\C=C2/CCC[C@]3(C)[C@@H]([C@H](C)C[C@H]4OC(=O)C(=C)[C@H]4CC)CC[C@@H]23)C[C@@H](O)[C@H](CCCO)[C@@H]1O | 8.08 |
| C=C1/C(=C\C=C2/CCC[C@]3(C)[C@@H]([C@H](C)C[C@@H]4OC(=O)C(=C)[C@@H]4CCCC)CC[C@@H]23)C[C@@H](O)C[C@@H]1O | 8.09 |
| C=C1/C(=C\C=C2/CCC[C@]3(C)[C@@H]([C@H](C)C[C@H]4OC(=O)C(=C)[C@H]4CC)CC[C@@H]23)C[C@@H](O)[C@H](OCCCO)[C@@H]1O | 8.08 |
| C=C1/C(=C\C=C2/CCC[C@]3(C)[C@@H]([C@H](C)C[C@@H]4OC(=O)C(=C)[C@H]4CC(C)C)CC[C@@H]23)C[C@@H](O)[C@H](C)[C@@H]1O | 7.96 |
| C=C1/C(=C\C=C2/CCC[C@]3(C)[C@@H]([C@H](C)C[C@H]4OC(=O)C(=C)[C@H]4CCCC)CC[C@@H]23)C[C@@H](O)[C@H](CCCO)[C@@H]1O | 8.06 |
| C=C1/C(=C\C=C2/CCC[C@]3(C)[C@@H]([C@H](C)C[C@H]4OC(=O)C(=C)[C@@H]4CC(C)C)CC[C@@H]23)C[C@@H](O)[C@H](CCCO)[C@@H]1O | 8.03 |
| C=C1/C(=C\C=C2/CCC[C@]3(C)[C@@H]([C@H](C)C[C@@H]4OC(=O)C(=C)[C@@H]4CCCC)CC[C@@H]23)C[C@@H](O)[C@H](CCCO)[C@@H]1O | 8.06 |
| C=C1/C(=C\C=C2/CCC[C@]3(C)[C@@H]([C@H](C)C[C@@H]4OC(=O)C(=C)[C@@H]4CC(C)C)CC[C@@H]23)C[C@@H](O)[C@H](OCCCO)[C@@H]1O | 8.03 |
| C=C1/C(=C\C=C2/CCC[C@]3(C)[C@@H]([C@H](C)C[C@@H]4OC(=O)C(=C)[C@@H]4CC)CC[C@@H]23)C[C@@H](O)[C@H](CCCO)[C@@H]1O | 8.08 |
| C=C1C(=O)O[C@H](C[C@@H](C)[C@H]2CC[C@H]3/C(=C/C=C4/C[C@@H](O)C[C@H](O)C4=C)CCC[C@]23C)[C@@H]1CCCC | 8.09 |
| C=C1/C(=C\C=C2/CCC[C@]3(C)[C@@H]([C@H](C)C[C@H]4OC(=O)C(=C)[C@H]4CC(C)C)CC[C@@H]23)C[C@@H](O)[C@H](CCCO)[C@@H]1O | 8.03 |
| C=C1/C(=C\C=C2/CCC[C@]3(C)[C@@H]([C@H](C)C[C@H]4OC(=O)C(=C)[C@@H]4CCCC)CC[C@@H]23)C[C@@H](O)[C@H](CCCO)[C@@H]1O | 8.06 |
| C=C1/C(=C\C=C2/CCC[C@]3(C)[C@@H]([C@H](C)C[C@H]4OC(=O)C(=C)[C@H]4CC(C)C)CC[C@@H]23)C[C@@H](O)[C@H](C)[C@@H]1O | 7.96 |
| C=C1/C(=C\C=C2/CCC[C@]3(C)[C@@H]([C@H](C)C[C@@H]4OC(=O)C(=C)[C@H]4CCCC)CC[C@@H]23)C[C@@H](O)[C@H](OCCCO)[C@@H]1O | 8.06 |
| C=C1/C(=C\C=C2/CCC[C@]3(C)[C@@H]([C@H](C)C[C@H]4OC(=O)C(=C)[C@@H]4CC(C)C)CC[C@@H]23)C[C@@H](O)[C@H](OCCCO)[C@@H]1O | 8.03 |
| C=C1/C(=C\C=C2/CCC[C@]3(C)[C@@H]([C@H](C)C[C@H]4OC(=O)C(=C)[C@@H]4C)CC[C@@H]23)C[C@@H](O)C[C@@H]1O | 7.96 |
| C=C1/C(=C\C=C2/CCC[C@]3(C)[C@@H]([C@H](C)C[C@H]4OC(=O)C(=C)[C@@H]4CCCC)CC[C@@H]23)C[C@@H](O)C[C@@H]1O | 8.09 |
| C=C1/C(=C\C=C2/CCC[C@]3(C)[C@@H]([C@H](C)C[C@@H]4OC(=O)C(=C)[C@@H]4CC)CC[C@@H]23)C[C@@H](O)C[C@@H]1O | 8.07 |
| C=C1/C(=C\C=C2/CCC[C@]3(C)[C@@H]([C@H](C)C[C@@H]4OC(=O)C(=C)[C@H]4CC)CC[C@@H]23)C[C@@H](O)[C@H](CCCO)[C@@H]1O | 8.08 |
| C=C1C(=O)O[C@@H](C[C@@H](C)[C@H]2CC[C@H]3/C(=C/C=C4/C[C@@H](O)C[C@H](O)C4=C)CCC[C@]23C)[C@@H]1CC | 8.07 |
| C=C1C(=O)O[C@@H](C[C@@H](C)[C@H]2CC[C@H]3/C(=C/C=C4/C[C@@H](O)C[C@H](O)C4=C)CCC[C@]23C)[C@@H]1CC(C)C | 8.03 |
| C=C1C(=O)O[C@@H](C[C@@H](C)[C@H]2CC[C@H]3/C(=C/C=C4/C[C@@H](O)C[C@H](O)C4=C)CCC[C@]23C)[C@@H]1CCCC | 8.09 |
| C=C1/C(=C\C=C2/CCC[C@]3(C)[C@@H]([C@H](C)C[C@@H]4OC(=O)C(=C)[C@H]4CC(C)C)CC[C@@H]23)C[C@@H](O)[C@H](CCCO)[C@@H]1O | 8.03 |
| C=C1/C(=C\C=C2/CCC[C@]3(C)[C@@H]([C@H](C)C[C@@H]4OC(=O)C(=C)[C@@H]4CCCC)CC[C@@H]23)C[C@@H](O)[C@H](OCCCO)[C@@H]1O | 8.06 |
| C=C1/C(=C\C=C2/CCC[C@]3(C)[C@@H]([C@H](C)C[C@H]4OC(=O)C(=C)[C@@H]4CC(C)C)CC[C@@H]23)C[C@@H](O)[C@H](C)[C@@H]1O | 7.96 |

Other lines, results leading:

| pIC50 | Structure (SMILES) |
| --- | --- |
| 8.21 | C=C1/C(=C\C=C2/CCC[C@]3(C)[C@@H]([C@H](C)C[C@H]4OC(=O)C(=C)[C@@H]4C)CC[C@@H]23)C[C@@H](O)[C@H](OCCCO)[C@@H]1O |
| 8.22 | C=C1/C(=C\C=C2/CCC[C@]3(C)[C@@H]([C@H](C)C[C@H]4OC(=O)C(=C)[C@@H]4CCC)CC[C@@H]23)C[C@@H](O)C[C@@H]1O |
| 8.20 | C=C1/C(=C\C=C2/CCC[C@]3(C)[C@@H]([C@H](C)C[C@H]4OC(=O)C(=C)[C@@H]4CCC)CC[C@@H]23)C[C@@H](O)[C@H](OCCCO)[C@@H]1O |
| 8.11 | C=C1/C(=C\C=C2/CCC[C@]3(C)[C@@H]([C@H](C)C[C@@H]4OC(=O)C(=C)[C@@H]4C)CC[C@@H]23)C[C@@H](O)C[C@@H]1O |
| 8.17 | C=C1/C(=C\C=C2/CCC[C@]3(C)[C@@H]([C@H](C)C[C@@H]4OC(=O)C(=C)[C@H]4CCCC)CC[C@@H]23)C[C@@H](O)[C@H](C)[C@@H]1O |
| 8.17 | C=C1C(=O)O[C@@H](C[C@@H](C)[C@H]2CC[C@H]3/C(=C/C=C4/C[C@@H](O)[C@H](C)[C@H](O)C4=C)CCC[C@]23C)[C@@H]1C |
| 8.17 | C=C1/C(=C\C=C2/CCC[C@]3(C)[C@@H]([C@H](C)C[C@@H]4OC(=O)C(=C)[C@H]4CC)CC[C@@H]23)C[C@@H](O)[C@H](C)[C@@H]1O |
| 8.20 | C=C1C[C@H](C[C@@H](C)[C@H]2CC[C@H]3/C(=C/C=C4/C[C@@H](O)C[C@H](O)C4=C)CCC[C@]23C)OC1=O |
| 8.20 | C=C1/C(=C\C=C2/CCC[C@]3(C)[C@@H]([C@H](C)C[C@@H]4OC(=O)C(=C)[C@@H]4CCC)CC[C@@H]23)C[C@@H](O)[C@H](OCCCO)[C@@H]1O |
| 8.17 | C=C1/C(=C\C=C2/CCC[C@]3(C)[C@@H]([C@H](C)C[C@H]4OC(=O)C(=C)[C@H]4CC)CC[C@@H]23)C[C@@H](O)[C@H](C)[C@@H]1O |
| 8.17 | C=C1/C(=C\C=C2/CCC[C@]3(C)[C@@H]([C@H](C)C[C@H]4OC(=O)C(=C)[C@H]4CCCC)CC[C@@H]23)C[C@@H](O)[C@H](C)[C@@H]1O |
| 8.21 | C=C1C(=O)O[C@@H](C[C@@H](C)[C@H]2CC[C@H]3/C(=C/C=C4/C[C@@H](O)[C@H](OCCCO)[C@H](O)C4=C)CCC[C@]23C)[C@@H]1C |
| 8.20 | C=C1/C(=C\C=C2/CCC[C@]3(C)[C@@H]([C@H](C)C[C@H]4OC(=O)C(=C)[C@@H]4CCC)CC[C@@H]23)C[C@@H](O)[C@H](C)[C@@H]1O |
| 8.17 | C=C1/C(=C\C=C2/CCC[C@]3(C)[C@@H]([C@H](C)C[C@@H]4OC(=O)C(=C)[C@@H]4CCCC)CC[C@@H]23)C[C@@H](O)[C@H](C)[C@@H]1O |
| 8.21 | C=C1C(=O)O[C@@H](C[C@@H](C)[C@H]2CC[C@H]3/C(=C/C=C4/C[C@@H](O)[C@H](CCCO)[C@H](O)C4=C)CCC[C@]23C)[C@@H]1C |
| 8.09 | C=C1C(=O)O[C@H](C[C@@H](C)[C@H]2CC[C@H]3/C(=C/C=C4/C[C@@H](O)[C@H](C)[C@H](O)C4=C)CCC[C@]23C)[C@@H]1C |

Source: BindingDB's records for doi:10.1021/jm060797q (Teikyo University, 2006)
